Measured values as given in ChEMBL document CHEMBL4673299, “A new sesquineolignan and four new neolignans isolated from the leaves of Piper betle, a traditional medicinal plant in Myanmar” (Bioorg Med Chem Lett, 2021).

Key:
RAW264.7 [1] = experiment: Anti-inflammatory activity in murine RAW264.7 cells assessed as inhibition of LPS-induced NO production; type: functional, cell-based; settings: Mus musculus
RAW264.7 [2] = experiment: Anti-inflammatory activity in murine RAW264.7 cells assessed as inhibition of LPS-induced NO production at 50 uM relative to control; type: functional; settings: Mus musculus

Structure (SMILES)	IC50 (RAW264.7 [1])	inhibition at 50 µM (RAW264.7 [2])
C=CCc1cc(O)c(OC)cc1C/C=C/c1ccc(OC)c(O)c1	45.9 µM	
C=CCc1cc(O)c2c(c1)-c1cc(O)c(O)cc1C(C=C)O2 (centres undefined)		< 50%
C=CCc1cc(O)c(O)cc1-c1cc(OC)c(O)cc1CC=C		< 50%
C=CCc1cc(O)c2oc3cc(O)c(O)c(CC=C)c3c2c1		< 50%
C=CCc1ccc2c(c1)O[C@@H](c1ccc(O)c(O)c1)[C@H](Cc1cc(O)c(O)cc1CC=C)O2	9.87 µM	
C=CCc1cc(O)c(O)cc1-c1cc(O)c(O)cc1CC=C	40.5 µM	
COc1cc(/C=C/CO)ccc1O [CONIFERYL ALCOHOL]		< 50%
COc1cc(/C=C/C=O)ccc1O [CONIFERYL ALDEHYDE]		< 50%
C=CCc1ccc(O)c(OC)c1 [EUGENOL]		< 50%
C=CCc1ccc(O)c(O)c1 [HYDROXYCHAVICOL]	4.8 µM	
COC(=O)/C=C/c1ccc(O)cc1 [METHYL P-HYDROXYCINNAMATE]		< 50%
CNC(=N)NCCC[C@H](N)C(=O)O [TILARGININE]	33.8 µM	
COc1cc(C=O)ccc1O [VANILLIN]		< 50%
O=C/C=C/c1ccc(O)cc1 [p-HYDROXYCINNAMALDEHYDE]	26.4 µM	
